Test results from ChEMBL document CHEMBL1134806, “Parallel solid-phase synthesis of nucleoside phosphoramidate libraries” (Bioorg Med Chem Lett, 2001).

What was measured:
[1] = system: Hepatitis B virus; assay: Inhibitory activity was determined against Hepatitis B virus (HBV) at 10 uM using HepG2-derived 2.2.15 cell lines; type: functional, organism-based
[2] = system: Hepatitis B virus; assay: Cytotoxic activity was determined against Hepatitis B virus (HBV) at 10 uM using HepG2-derived 2.2.15 cell lines; type: functional; details: HepG2 2.2.15

IC50 [1] [µM]	Compound	CC50 [2] [µM]
2.1	Nc1nc(O)c2ncn([C@H]3C[C@H](O)[C@@H](COP(=O)(O)O[C@@H]4C[C@@H](n5cnc6c(N)ncnc65)O[C@H]4COP(=O)(O)NC4CCCN4)O3)c2n1 (some centres undefined)	> 300
4.4	COc1ccc(CCNP(=O)(O)OC[C@H]2O[C@@H](n3ccc(=O)[nH]c3=O)[C@H](OC)[C@@H]2OP(=O)(O)OC[C@H]2O[C@@H](n3cnc4c(N)ncnc43)C[C@@H]2O)cc1OC	> 300
